# Data published in ChEMBL document CHEMBL1144278, “A new bactericidal lead structure for the protection of materials” (Bioorg Med Chem Lett, 2005).
# Legend:
# [1] = tested on: Pseudomonas aeruginosa; experiment: Minimum inhibitory concentration against Pseudomonas aeruginosa NCIB 6749 was determined in chem. def. medium; format: functional
# [2] = tested on: Pseudomonas aeruginosa; experiment: Minimum inhibitory concentration against Pseudomonas aeruginosa NCIB 6749 was determined in complex medium; format: functional
# [3] = Half life period was determined; format: ADME; details: pH 9, 50 °C
# [4] = tested on: Bacteria; experiment: Minimum inhibitory concentration against Corynebacterium was determined in agar medium; format: functional
# [5] = tested on: Bacillus subtilis; experiment: Minimum inhibitory concentration against Bacillus subtilis; format: functional
# [6] = tested on: Pseudomonas aeruginosa; experiment: Minimum inhibitory concentration against Pseudomonas aeruginosa ATCC 15442 was determined in agar medium; format: functional
# [7] = tested on: Pseudomonas aeruginosa; experiment: Minimum inhibitory concentration against Pseudomonas aeruginosa NCIB 12201 was determined in agar medium; format: functional
# [8] = tested on: Alcaligenes faecalis; experiment: Minimum inhibitory concentration against Alcaligenes faecalis was determined in agar medium; format: functional
# [9] = tested on: Pseudomonas aeruginosa; experiment: Minimum inhibitory concentration against Pseudomonas aeruginosa NCIB 6749 was determined in agar medium; format: functional
# [10] = Lethal dose in rat; format: toxicity; details: in vivo
# [11] = Half life periof was determined; format: ADME
Compound,MIC [1] [µg/mL],MIC [2] [µg/mL],other results
CCCC(=O)N(C(=O)CCC)c1onc2c1CCC2,,,half-life [3]: 6 h
C=C(C)OC(=O)N(C(=O)OC(=C)C)c1onc2c1CCC2,10,10,
Nc1onc2c1CCC2,,,MIC [4]: < 1 µg/mL; MIC [5]: 5 µg/mL; MIC [6]: 5 µg/mL; MIC [7]: 7.5 µg/mL; MIC [8]: < 1 µg/mL; MIC [9]: < 1 µg/mL; LD50 [10]: < 300 mg/kg; half-life [11]: 97 h
O=C(OCC(Cl)(Cl)Cl)N(C(=O)OCC(Cl)(Cl)Cl)c1onc2c1CCC2,10,5,
O=C(Nc1onc2c1CCC2)C(F)(F)F,,,half-life [3]: 105 h

# More lines, main results first:
MIC [1] [µg/mL],MIC [2] [µg/mL],Compound,other results
10,5,O=C(OCCCl)N(C(=O)OCCCl)c1onc2c1CCC2,
10,5,CC(C)COC(=O)N(C(=O)OCC(C)C)c1onc2c1CCC2,
10,5,O=C(OCCBr)N(C(=O)OCCBr)c1onc2c1CCC2,
10,10,CCCCOC(=O)N(C(=O)OCCCC)c1onc2c1CCC2,
